Data from article PMC7018972, “Novel and selective inactivators of Triosephosphate isomerase with anti-trematode activity” (Scientific Reports, 2020).
Like-named read-outs stand apart in the source and are kept apart here.

Experiments:
[1] = molecular target: Fasciola hepatica TIM (FhTIM) (Fasciola hepatica, UniProt S4UI50); assay: Inhibition of recombinant FhTIM, coupled enzyme assay; assay type: biochemical
Procedure, shortened: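 E. coli-expressed FhTIM preincubated with compound 1 h at 37 °C in 100 mM triethanolamine, 10 mM EDTA, pH 7.4, 10% DMSO. Aliquot diluted into coupled assay (1 mM glyceraldehyde-3-phosphate, 0.2 mM NADH, α-glycerol phosphate dehydrogenase, pH 7.4) with NADH decrease at 340 nm, 38 °C. Triplicate, two independent experiments.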

[2] = system: newly excysted juvenile (NEJ) F. hepatica; assay: In vitro NEJ treatment; assay type: cell-based, Fasciola hepatica; settings: Fasciola hepatica, NEJ
Method: F. hepatica metacercariae were acquired from DILAVE, MGAP, Uruguay. NEJ were obtained by in vitro excystement as previously described with minor modifications. Briefly, metacercariae were incubated with 1% sodium hypochlorite for 5 min at room temperature to remove the outer cyst wall and then washed exhaustively with PBS 200 U/mL Penicillin G sulfate, […] streptomycin sulfate, 500 ng/mL amphotericin B, 10 mM HEPES, counted and divided into groups of around 20 parasites that were transferred to 12 wells tissue culture plates. Parasites were maintained at 37 °C, 5% CO2 in modified Basch’s medium. At day 1, compounds were added at the indicated concentrations and 0.5% DMSO was added to control groups; each condition was tested in duplicate. NEJ behavior was monitored under a light microscope (Olympus BX41), every day each well was recorded for a minute in order to assess parasite motility and registered using the following score: 3- normally active; 2- reduced activity (sporadic movement); 1- immotile (dead)[48].

S. mansoni somules = S. mansoni somules phenotypic screen in vitro; assay type: cell-based, Schistosoma mansoni; settings: Table 2S, 10 uM
Excerpt: (§1) The NMRI isolate of S. mansoni was maintained by passage through Biomphalaria glabrata snails and 3–5 week-old, female Golden Syrian hamsters (Charles River, San Diego, CA) as intermediate and definite hosts, respectively. A dose of 600 infective larvae (cercariae) was used to infect hamsters. The acquisition, preparation and in vitro maintenance of S. mansoni post-infective larvae (schistosomula or somules) and adults have been already described[5],[50],[51]. Vertebrate animal maintenance and handling at the University of California San Diego Animal Care Facility were in accordance with protocols approved by the university’s Institutional Animal Care and Use Committee (IACUC).
Phenotypic screens with somules were performed as described[5],[50],[51]. Initially, 100 μL Basch medium, 100 U/ml penicillin, […] streptomycin, 4% heat-inactivated FBS (Corning Mediatech) and 1 μl compound in DMSO were added to clear, 96-well round-bottomed plates (Costar cat.# 3367). Then, 100 μL of the same medium containing 40–50 somules was added to mix the compound with somules (final concentration of DMSO was 0.5%). Assay plates were placed into plastic boxes humidified with wet tissue and then incubated at 37 °C in a 5% CO2 environment. Somules phenotypes were recorded every 24 h up to 72 h using an inverted microscope (Zeiss Axiovert 40 C).
(§2) Schistosome phenotypic responses were recorded employing a series of ‘descriptors,’ such as rounding, degeneration, overactivity, loss of translucency and changes in motility, as described previously[5],[50],[51],[53]. To allow for comparisons of compound activity, each descriptor was awarded a value of 1 and these were added up to a maximum ‘severity score’ of 4. Evidence of degeneracy or death was awarded the maximum score of 4. Scores were averaged across duplicate wells for each compound (see details in the supporting information).

S. mansoni adults = S. mansoni adults phenotypic screen ex vivo; assay type: cell-based, Schistosoma mansoni; settings: Table 2S, 5 uM
Excerpt: as §1
Phenotypic screens with 42-day-old, adult parasites were performed in 24-well plates (Costar cat.# 3526) containing the above medium and approximately five adult males and two females per well. Compound was added in a volume of up to 1 μL DMSO at a concentration of 5 µM (0.05% DMSO final). Assay plates were incubated at 37 °C in a 5% CO2 environment. Parasite phenotypes were recorded at 4, 8 and 24 h using a Zeiss Axiovert 40 C.
as §2

[3] = Figure 1, ranges of inhibitory activity, read-out: IC50 range
[4] = recombinant FhTIM, 1 h incubation with compound at 37 °C, read-out: IC50
[5] = Table 1S, screening of 340 compounds in FhTIM, table head prints no unit, µM per b8/b9, read-out: IC50

Fasciola hepatica TIM (FhTIM), sequence (S4UI50 entry or part of it): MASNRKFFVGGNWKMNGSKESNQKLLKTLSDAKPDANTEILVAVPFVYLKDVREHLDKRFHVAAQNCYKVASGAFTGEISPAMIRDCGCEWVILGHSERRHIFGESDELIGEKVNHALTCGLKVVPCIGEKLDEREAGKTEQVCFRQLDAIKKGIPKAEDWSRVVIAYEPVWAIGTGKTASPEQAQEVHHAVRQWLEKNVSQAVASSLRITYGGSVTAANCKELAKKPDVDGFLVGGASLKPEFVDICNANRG

| SMILES | IC50 [1, 5] [µM] | further results |
| --- | --- | --- |
| CCCCN1C(=O)C(=Cc2ccc([N+](=O)[O-])s2)C(=O)N(CCCC)S1(=O)=O [Compound 1148] |  | IC50 [1, 3]: < 50 µM; IC50 [1, 4]: 15 ± 5 µM; IC50 ([2]; incubation time 4 h): 12 ± 2 µM; SOMULES SEVERITY SCORE (S. mansoni somules; 24 h): 0; SOMULES SEVERITY SCORE (S. mansoni somules; 48 h): 1; SOMULES SEVERITY SCORE (S. mansoni somules; 3d): 0 |
| C=CCN1C(=O)CSC1=NN=Cc1ccc2c(c1)[n+]([O-])c(-c1ccccc1)c(C(=O)Nc1ccccc1)[n+]2[O-] [Compound 303] | > 100 | SOMULES SEVERITY SCORE (S. mansoni somules; 24 h): 0; SOMULES SEVERITY SCORE (S. mansoni somules; 48 h): 4; SOMULES SEVERITY SCORE (S. mansoni somules; 3d): 4; ADULTS SEVERITY SCORE (S. mansoni adults; 4 h): 0; ADULTS SEVERITY SCORE (S. mansoni adults; 8 h): 0; ADULTS SEVERITY SCORE (S. mansoni adults; 24 h): 0 |
| CS(=O)(=O)c1nc2cc(Oc3cccc(Cl)c3Cl)c(Cl)cc2[nH]1 [Compound 1293, 6-chloro-5-(2,3-dichlorophenoxy)-2-(methylsulfonyl)-1H-benzo[d]imidazole, reference compound] |  | IC50 ([2]; incubation time 48 h): 50 µM |
| COc1cc(/C=C/C(=O)CC(=O)/C=C/c2ccc(O)c(OC)c2)ccc1O [Compound 906] |  | IC50 ([1]; IC50 (µM), recombinant FhTIM, 1 h incubation with compound at 37 °C): 35 ± 4 µM; IC50 ([1]; IC50 range, Figure 1, ranges of inhibitory activity): < 50 µM; IC50 ([2]; incubation time 4 h): 7 ± 1 µM |
| O=C1C(=Cc2ccc([N+](=O)[O-])o2)C(=O)N(Cc2ccccc2)S(=O)(=O)N1Cc1ccccc1 [Compound 116] | < 25 | IC50 [1, 3]: < 50 µM; IC50 [1, 4]: 5 ± 1 µM; IC50 ([2]; incubation time 72 h): > 50 µM |
| C=CCN(C(C)=O)C1=NNC(c2ccc([N+](=O)[O-])s2)S1 (stereo not shown) [Compound 287] | > 100 |  |
| O=c1c2cc([N+](=O)[O-])ccc2n2n1CCCCC2 [Compound 637] | > 100 |  |
| Nc1nc(-c2ccc(Cl)cc2)cs1 [Compound 813] | > 100 |  |
| C=CCn1c(-c2ccc(OC)cc2)csc1=NN=Cc1ccc([N+](=O)[O-])s1 [Compound 132] | > 100 |  |
| C=CCn1c(-c2ccccc2)csc1=NN=CC=Cc1ccco1 [Compound 276] | > 100 |  |
| COc1ccc(C=Cc2cnnc[n+]2[O-])cc1 [Compound 365] | > 100 |  |
| Cc1c(C=NNC(N)=O)no[n+]1[O-] [Compound 159] | > 100 |  |
| C=CCn1c(C)csc1=NN=CC=Cc1ccc([N+](=O)[O-])s1 [Compound 259] | > 100 |  |
| N#Cc1c2ccccc2[n+]([O-])n1CCC=Cc1ccc(Cl)cc1 [Compound 501] | > 100 |  |
| CCCCNCCCCCn1nc(OC)c2cc([N+](=O)[O-])ccc21 [Compound 643] | > 100 |  |
| CC(=O)N(C1=NN(C(C)=O)C(c2ccc([N+](=O)[O-])s2)S1)c1ccccc1 (stereo not shown) [Compound 130] | > 100 |  |
| C=CCn1c(C(=O)N2CCN(C)CC2)csc1=NN=C/C=C/c1ccco1 [Compound 1093] | > 100 |  |
| Cc1ncc([N+](=O)[O-])n1CCI [Compound 712] | > 100 |  |
| O=C(CBr)C(=O)CSC(=NN=Cc1ccccc1)Nc1ccccc1 [Compound 777] | > 100 |  |
| CC12CCC(O)CC1=CCC1C2CCC2(C)C(C(=O)C=CC=Cc3ccccc3)CCC12 (stereo not shown) [Compound 1279] | > 100 |  |
| O=C1C(=Cc2cccs2)CCCC1=Cc1cccs1 [Compound 807] | > 100 |  |
| C=CCN1C(=O)CSC1=NN=CC=Cc1ccco1 [Compound 264] | > 100 |  |
| C=CCN1C(=O)CSC1=NN=Cc1ccc(Cl)cc1 [Compound 260] | > 100 |  |
| C=CCN1C(=O)CSC1=NN=Cc1ccc([N+](=O)[O-])s1 [Compound 129] | > 100 |  |

| SMILES | IC50 [1, 5] [µM] | further results |
| --- | --- | --- |
| O=S(=O)(NCCc1ccccc1)NCCc1ccccc1 [Compound 120] | > 100 |  |
| COCCNC(=O)/C=C/c1ccc([N+](=O)[O-])o1 [Compound 60] | > 100 |  |
| C=CCNC(=S)NN=Cc1ccc(O)cc1 [Compound 291] | > 100 |  |
| O=C(C=Cc1cccc2ccccc12)c1ccccc1O [Compound 1269] | > 100 |  |
| C=CCNC(=S)NN=C(C)c1cc2ccccc2o1 [Compound 787] | > 100 |  |
| Cc1c(C=NNC(N)=S)no[n+]1[O-] [Compound 1283] | > 100 |  |
| CCCCNS(=O)(=O)NCCCC [Compound 123] | > 100 |  |
| Clc1ccc(-c2csc(N=CC=Cc3ccco3)n2)cc1 [Compound 910] | > 100 |  |
| CC12CCC(O)CC1=CCC1C2CCC2(C)C(C(=O)C=Cc3ccccc3Cl)CCC12 (stereo not shown) [Compound 1259] | > 100 |  |
| N#Cc1c2ccccc2[n+]([O-])n1-c1ccc2ccccc2c1 [Compound 202] | > 100 |  |
| N#Cc1c2ccccc2[n+]([O-])n1C/C=C/c1ccccc1 [Compound 500] | > 100 |  |
| O=C(O)c1ccc(C=CCN2C(=O)c3ccccc3C2=O)cc1 (mixture of isomers) [Compound 617] | > 100 |  |
| NNC(=O)c1ccncc1 [Compound 1120] | > 100 |  |
| CC(=O)Nc1ccc(C#N)cc1 [Compound 1104] | > 100 |  |
| C=CCN1C(=O)CSC1=NN=CC=Cc1cccs1 [Compound 1138] | > 100 |  |
| CCOC(=O)c1cc2c(n1CC)C(=O)C(Oc1ccc(Cl)cc1)=CC2=O [Compound 1129] | > 100 |  |
| O=C(C(O)c1ccccc1)C(O)c1ccccc1 (stereo not shown) [Compound 1083] | > 100 |  |
| CC(C=CC(=O)C=CC(C)=Cc1ccco1)=Cc1ccco1 [Compound 809] | > 100 |  |
| C=CCn1c(C(=O)CN2CCN(c3ccccc3)CC2)csc1=NN=CC=Cc1ccco1 [Compound 1099] | > 100 |  |
| [O-][n+]1onc2cc(F)c(F)cc21 [Compound 627] | > 100 |  |
| C=CCn1c(-c2ccc(Cl)cc2)csc1=NN=Cc1ccc([N+](=O)[O-])s1 [Compound 145] | > 100 |  |
| C=CCNC(=S)NN=Cc1ccc2c(c1)[n+]([O-])c(C(=O)Nc1ccccc1)c(C)[n+]2[O-] [Compound 490] | > 100 | SOMULES SEVERITY SCORE (S. mansoni somules; 24 h): 0; SOMULES SEVERITY SCORE (S. mansoni somules; 48 h): 0; SOMULES SEVERITY SCORE (S. mansoni somules; 3d): 0 |
| O=C(C=Cc1ccc2ccccc2c1)c1c(O)ccc2ccccc12 [Compound 1254] |  | IC50 [1, 4]: 50 ± 5 µM; SOMULES SEVERITY SCORE (S. mansoni somules; 24 h): 0; SOMULES SEVERITY SCORE (S. mansoni somules; 48 h): 2; SOMULES SEVERITY SCORE (S. mansoni somules; 3d): 0 |
| CSc1ccc(C=CC(=O)c2ccc([N+](=O)[O-])cc2)cc1 [Compound 1155] | > 100 |  |
